Laboratory results reported in patent publication US10125129B2 (priority 2016, dated 2018).
pEC50: −log10 of the molar value. Entries after “also recorded” stand apart in the source; their conditions may differ.

Tests used:
[1] = biological target: T1, κ opioid receptor (KOR) (Homo sapiens, UniProt P41145); assay: cell-based; assay type: cell-based
T1 construct: expressed in transfected cells

[2] = test system: mice; assay: Centrally mediated antinociceptive effects (tail-flick), i.p. doses, 10 s cutoff; assay type: in vivo; conditions: 5 and 10 mg/kg i.p.; similar to morphine at 10 mg/kg
[3] = test system: mice; assay: Hot water tail-flick cumulative dose-response (s.c.); assay type: in vivo; conditions: Mus musculus, sc, 0.5 h, cumulative s.c. doses 1-30 mg/kg, latency 30 min after each dose
[4] = test system: mice; assay: Hot water tail-flick tolerance evaluation, daily dosing; assay type: in vivo; conditions: for antinociceptive effects over days of daily administration (tolerance): 7 mg/kg i.p. daily, days 1, 3, 5, 6, mice; for antinociceptive effects on day 6 challenge after daily vehicle: daily vehicle treated mice challenged on day 6
[5] = test system: Sprague Dawley rats; assay: Conditioned place preference assay; conditions: i.p.
[6] = test system: mice; assay: Accelerating rotarod performance assay; conditions: 10 mg/kg i.p.; compared to kurkinorin and vehicle

T1 sequence (P41145 whole entry): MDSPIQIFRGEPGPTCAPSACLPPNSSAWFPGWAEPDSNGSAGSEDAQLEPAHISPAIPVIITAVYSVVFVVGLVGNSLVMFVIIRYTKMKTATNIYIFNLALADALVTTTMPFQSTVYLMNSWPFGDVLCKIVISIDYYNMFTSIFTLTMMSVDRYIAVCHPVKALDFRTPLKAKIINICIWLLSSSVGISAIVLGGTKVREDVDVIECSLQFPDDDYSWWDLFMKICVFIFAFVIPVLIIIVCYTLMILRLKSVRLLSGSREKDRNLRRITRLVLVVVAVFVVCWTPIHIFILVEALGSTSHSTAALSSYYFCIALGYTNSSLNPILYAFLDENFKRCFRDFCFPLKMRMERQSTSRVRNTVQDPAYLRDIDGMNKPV

Compound | pEC50 [1] | activity at the KOR [1] | antinociceptive effects [2] | ED50 [3] | antinociceptive effects over days of daily administration (tolerance) [4] | antinociceptive effects on day 6 challenge after daily vehicle [4] | conditioned place preference ([5]; 5 mg/kg) | conditioned place preference ([5]; 10 mg/kg, listed as Kurkinorin) | conditioned place preference ([5]; 10 mg/kg) | motor coordination (rotarod) [6]
COC(=O)[C@@H]1C=C(OC(=O)c2ccccc2)C(=O)[C@H]2[C@@]1(C)CC[C@H]1C(=O)O[C@H](c3ccoc3)C[C@]21C [Compound 5, (2S,4aR,6aR,6aR,10aR,10bR)-Methyl 2-(furan-3-yl)-9-((benzoyl)oxy)-6a,10b-dimethyl-4,10-dioxo-2,4,4a,5,6,6a,7,10,10a,10b-decahydro-1H-benzo[f]isochromene-7-carboxylate] | < 5.00 | no activity | significant antinociceptive effects | 9.72 mg/kg | maintained antinociceptive efficacy from days 1-6 | antinociceptive effects similar to day 1 | Neither kurkinorin (5) nor herkinorin (2) were significantly different to vehicle | significant decrease in preference compared to morphine; also recorded: not significantly different form vehicle | – | –
CN1CC[C@]23c4c5ccc(O)c4O[C@H]2[C@@H](O)C=C[C@H]3[C@H]1C5 [Morphine, morphine, reference compound] | – | – | – | 9.86 mg/kg | significant antinociceptive effects on days 1, 3, and 5 but not day 6 | antinociceptive effects similar to day 1 | significant place preference | – | significant place preference | significant decrease in motor coordination
